The test system of data set [1] is volunteers. The data set is described as follows: C3 eye drop instilled in volunteers, sensation scores. It counts as in vivo, human. The protocol: Eye drops represent ~90% of formulations used for treatment of anterior eye disorders. […] Subjects were asked to rate discomfort, blurring, and coolness sensations, on a scale of 0 (no effect) to 5 (intense effect) at 5, 10, and 15 min after instillation. […] Cooling sensation scores were significant at 5 min (2.6 vs 0.2), but there were not much cooling at 10 (0.8 vs 0.2) or 15 min (0.2 vs 0.2). It appeared as if eye drops are a relatively inefficient method of C3 delivery because the drop splashes in a confined space and the time for the active ingredient to be retained on target receptors is short. Furthermore, the initial period of discomfort is not desirable. To determine if there were other TRPM8 targets on the orbit, we examined the mouse eye with a selective TRPM8-GFP reporter line.

In data set [2] the test system is TRPM8-sensory neurons. The data set is described as follows: Calcium imaging of primary sensory neurons from Trpm8 EGFP mice. The format is cell-based, mouse. The note with it: C3 10 μM. The protocol: Calcium imaging was used to test the C3 selectivity on TRPM8-sensory neurons. Trpm8 ^+/EGFPmice were gifted by Dr. Yu-Qing Cao, Pain Center of Washington University in Saint Louis, School of Medicine, Missouri. Trigeminal ganglions and dorsal root ganglions from 4 to 5 weeks old mice were collected after CO2 euthanasia and digested for 30–40 min before plated on cover slips (8 mm), which were coated with poly-D-lysine for 40 min before use. Cover slips were gently washed with culture media to remove myelin after incubating for 35–40 min. Calcium imaging was done after incubation overnight at 37 °C, 5% CO2. Neurons were loaded with Fura-2 AM™ (Molecular Probes) for 30 min at room temperature. After washing and recovery, neurons were imaged at 340 and 380 nm excitation to detect free calcium influx. An increase of 50% of the 340/380 ratio was considered as the response threshold which were measured under blinded conditions for genotypes. Compounds were applied to the bath and calcium response was acquired by an inverted Nikon fluorescence microscope with a CoolSnap HQ2 CCD camera (Photometrics, Tucson, AZ). Data was quantified offline with the Nikon-NIS program.

The target in data set [3] is T1, mouse TRPV1 (Mus musculus, UniProt Q704Y3).
T1 construct: expressed in transfected cells; host or cells: KNRK cells (rat kidney), transiently transfected
T1 sequence (Q704Y3 whole entry): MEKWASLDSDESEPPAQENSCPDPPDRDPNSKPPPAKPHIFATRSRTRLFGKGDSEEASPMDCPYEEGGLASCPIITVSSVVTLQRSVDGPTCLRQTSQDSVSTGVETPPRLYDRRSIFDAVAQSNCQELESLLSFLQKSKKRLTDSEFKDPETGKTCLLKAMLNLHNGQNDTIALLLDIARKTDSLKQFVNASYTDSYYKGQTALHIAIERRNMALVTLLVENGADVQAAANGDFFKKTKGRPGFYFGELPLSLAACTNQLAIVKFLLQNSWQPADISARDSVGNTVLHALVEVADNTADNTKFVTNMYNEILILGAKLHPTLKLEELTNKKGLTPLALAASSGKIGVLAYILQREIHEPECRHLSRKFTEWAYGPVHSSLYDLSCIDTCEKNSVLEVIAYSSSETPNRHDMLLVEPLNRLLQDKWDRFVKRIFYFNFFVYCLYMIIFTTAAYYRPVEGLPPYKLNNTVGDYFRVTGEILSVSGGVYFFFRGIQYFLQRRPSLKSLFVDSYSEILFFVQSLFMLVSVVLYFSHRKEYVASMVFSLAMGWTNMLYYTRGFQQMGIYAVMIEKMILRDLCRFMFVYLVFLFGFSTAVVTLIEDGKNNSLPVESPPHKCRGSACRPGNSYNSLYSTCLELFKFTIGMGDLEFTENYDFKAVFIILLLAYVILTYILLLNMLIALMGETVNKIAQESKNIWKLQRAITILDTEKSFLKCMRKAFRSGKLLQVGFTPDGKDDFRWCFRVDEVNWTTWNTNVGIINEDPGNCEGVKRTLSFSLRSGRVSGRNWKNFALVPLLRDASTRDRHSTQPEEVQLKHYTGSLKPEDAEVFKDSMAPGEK
The data set can be described thus: TRPV1 calcium imaging (Fura-2) in transfected KNRK cells. It counts as cell-based. The conditions noted are these: 10 μM. The protocol:
To further examine the specificity of C3, tests were conducted on TRPV1 channels and TRPA1 channels expressed in Kirsten murine sarcoma virus transformed rat kidney (KNRK) cells. KNRK cells were cultured as a monolayer and maintained in Dulbeccos’s Modified Eagles’s Medium (Life Technologies), supplemented with 10% fetal bovine serum (Life Technologies), 100 units/mL penicillin and 100 μg/mL streptomycin, in an incubator of 5% CO2 at 37 °C. After suspension, the cells were coated on cover slips for 12 h, then transiently transfected with cDNA (pc3.1 DNA) for TRPV1 or TRPA1 with Lipofectamine 2000 (Invitrogen) for 24 h, and loaded with Fura-2 AM™ (Molecular Probes) for 40 min at 37 °C. After washing and recovery, KNRK cells were imaged at 340 and 380 nm excitation to detect free calcium influx. An increase of 50% of the 340/380 ratio was considered as the response threshold which were measured under masked conditions for plasmids. Compounds were applied to the bath and calcium response was acquired by an inverted Nikon fluorescence microscope with a CoolSnap HQ2 CCD camera (Photometrics, Tucson, AZ). Data were quantified offline with the Nikon-NIS program.

Data set [4] addresses T2, human TRPM8 (Homo sapiens, UniProt Q7Z2W7).
T2 construct: host or cells: CHO cells, stably transfected
The data set can be described thus: TRPM8 calcium assay (Fluo-8, FLIPR) in transfected CHO cells. It counts as cell-based. The note with it: x Menthol. The protocol:
Compounds were tested on Chinese Hamster Ovary (CHO) cells stably transfected with human TRPM8 cDNAs using a Fluo-8 calcium kit and a Fluorescence Imaging Plate Reader ([…]™) instrument. […] Solutions were prepared by diluting stock solutions in a HEPES-buffered physiological saline (HBPS) solution. Test compound and control formulations were loaded in polypropylene or glass-lined 384-well plates, and placed into the FLIPR instrument (Molecular Devices Corporation, Union City, CA, USA). Each was tested at 8 concentrations with n = 4 replicates per determination. […] For […]™ assay, cells were plated in 384-well black wall, flat clear-bottom microtiter plates (Type: BD Biocoat Poly-D-Lysine Multiwell Cell Culture Plate) at approximately 30,000 cells per well. Cells were incubated at 37 °C overnight to reach a near confluent monolayer appropriate for use in a fluorescence assay. The test procedure was to remove the growth media and to add 40 μL of HBPS containing Fluo-8 for 30 min at 37 °C. 10 μL of test compound, vehicle, or control solutions in HBPS were added to each well and read for 4 min. Concentration-response data were analyzed via the FLIPR Control software that is supplied with the FLIPR System (MDS-AT) and fitted to a Hill equation.

T2 sequence (Q7Z2W7 whole entry): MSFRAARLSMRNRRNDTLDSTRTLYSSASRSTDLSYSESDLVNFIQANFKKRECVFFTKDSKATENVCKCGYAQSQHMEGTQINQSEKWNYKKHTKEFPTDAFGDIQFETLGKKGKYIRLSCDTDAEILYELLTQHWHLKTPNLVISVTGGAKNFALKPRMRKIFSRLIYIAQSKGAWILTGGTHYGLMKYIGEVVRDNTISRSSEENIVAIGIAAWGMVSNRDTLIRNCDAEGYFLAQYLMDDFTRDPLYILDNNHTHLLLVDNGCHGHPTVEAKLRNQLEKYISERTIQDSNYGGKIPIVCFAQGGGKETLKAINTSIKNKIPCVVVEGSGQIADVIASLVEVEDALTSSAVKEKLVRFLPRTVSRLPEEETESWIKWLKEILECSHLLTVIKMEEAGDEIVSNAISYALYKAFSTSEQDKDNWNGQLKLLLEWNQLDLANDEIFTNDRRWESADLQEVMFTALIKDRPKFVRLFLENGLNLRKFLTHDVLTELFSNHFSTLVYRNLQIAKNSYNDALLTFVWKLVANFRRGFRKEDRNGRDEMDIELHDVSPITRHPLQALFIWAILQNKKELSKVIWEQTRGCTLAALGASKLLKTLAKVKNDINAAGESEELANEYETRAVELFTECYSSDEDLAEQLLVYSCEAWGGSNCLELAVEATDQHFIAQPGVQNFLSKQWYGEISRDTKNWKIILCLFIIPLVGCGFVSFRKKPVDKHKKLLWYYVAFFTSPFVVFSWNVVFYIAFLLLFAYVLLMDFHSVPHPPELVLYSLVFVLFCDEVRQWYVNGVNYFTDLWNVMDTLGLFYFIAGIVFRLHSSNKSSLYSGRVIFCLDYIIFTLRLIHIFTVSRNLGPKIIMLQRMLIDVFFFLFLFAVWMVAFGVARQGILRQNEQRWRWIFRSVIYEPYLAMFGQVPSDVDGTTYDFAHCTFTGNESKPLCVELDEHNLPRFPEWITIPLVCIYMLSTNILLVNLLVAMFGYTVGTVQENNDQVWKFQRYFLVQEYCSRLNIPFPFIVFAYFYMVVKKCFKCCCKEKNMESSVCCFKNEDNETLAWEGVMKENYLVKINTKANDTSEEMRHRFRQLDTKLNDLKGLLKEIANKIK

Turning to `CCCCCCCCCP(=O)(C(C)C)C(C)C` [C3, 1-diisopropylphosphorylnonane], the blurring entry in data set [1] (0.1 mg/mL eye drop, 5, 10 and 15 min) is on record as “did not cause significant blurring”. For the same molecule, the “Cooling sensation score (0-5)” value in data set [1] (0.1 mg/mL eye drop, 5 min) turned out to be 2.6; in data set [1] (0.1 mg/mL eye drop, 10 min), 0.8; in data set [1] (0.1 mg/mL eye drop, 15 min), 0.2. For the same molecule, the “duration of cooling after eye drop” value in data set [1] (0.1 mg/mL eye drop, volume printed as 70 μL) is recorded as not above 10 min. Moreover, in data set [1] (0.1 mg/mL, 50 μL eye drop, 10 or 15 min), the discomfort entry is given as “not at 10 or 15 min”. Besides, the “discomfort score (0-5)” value in data set [1] (0.1 mg/mL, 50 μL eye drop, 5 min, n = 5) is 1.6. In addition, the “calcium entry in TRPM8 EGFP/+ sensory neurons” value in data set [2] is reported as “activates calcium entry”. Also, the “activation of TRPV1 (calcium response)” value in data set [3] was “inactive”. Besides, the “relative potency to l-menthol (menthol = 1)” value in data set [4] was 4.0.

The values above are taken from article PMC5485613, “A novel TRPM8 agonist relieves dry eye discomfort” (BMC Ophthalmology, 2017).
